Our source for the GI50 and IC50 values is patent publication US20220306659A1, “COMPOUND INHIBITING AND INDUCING DEGRADATION OF EGFR AND ALK” (BEIJING TIDE PHARMACEUTICAL CO., LTD., priority 2019, published 2022).

Assay [1] has as its target Ba/F3(EGFR^L858R/T790M/C797S) cells (Homo sapiens, UniProt P00533, T790M/C797S/L858R, cells depend on it). The assay is described as follows: Assay of activity on Ba/F3 cells (CTG, 72 h). The class given is cell-based. To be noted: read-out: IC50 (nM) Ba/F3 (EGFR^L858R/T790M/C797S). The gist of the method:
(§1)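 Ba/F3 cells dependent on each EGFR triple mutant were exposed to 3-fold compound dilutions for 72 h at 37° C, 5% CO2, with CellTiter-Glo luminescence as the read-out.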

The target of a further assay is EGFR^Del19/T790M/C797S (Homo sapiens, UniProt P00533, C797S/DEL746-750/T790M). In words: EGFR inhibitory activity assay (TK-substrate-biotin/ATP, 665/615 ratio). The class given is biochemical. To be noted: kinase inhibition. As to the method: EGFR Inhibitory Activity Assay
Sequence of EGFR^Del19/T790M/C797S (P00533 with tags, fused parts or gaps DEL746-750/T790M/C797S): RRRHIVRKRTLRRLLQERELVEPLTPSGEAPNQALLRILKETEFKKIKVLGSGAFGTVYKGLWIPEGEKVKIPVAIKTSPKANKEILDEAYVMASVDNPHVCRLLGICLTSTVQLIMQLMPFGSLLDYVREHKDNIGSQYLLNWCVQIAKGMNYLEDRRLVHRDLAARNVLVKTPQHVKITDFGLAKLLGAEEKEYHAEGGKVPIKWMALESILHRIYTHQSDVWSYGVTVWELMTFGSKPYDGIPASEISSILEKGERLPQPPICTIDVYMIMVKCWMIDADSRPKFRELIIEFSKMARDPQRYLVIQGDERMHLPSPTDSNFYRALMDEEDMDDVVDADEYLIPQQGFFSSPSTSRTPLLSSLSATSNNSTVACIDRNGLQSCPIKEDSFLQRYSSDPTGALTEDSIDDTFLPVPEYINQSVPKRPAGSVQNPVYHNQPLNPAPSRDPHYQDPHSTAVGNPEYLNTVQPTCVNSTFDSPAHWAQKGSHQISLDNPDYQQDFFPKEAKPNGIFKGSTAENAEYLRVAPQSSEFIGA
(2) The plate was sealed, and centrifuged at 1,000 g for 1 min;
(4) 5 μl of the 2×EGFR protein working solution was added to the 384-well plate from step (2), centrifuged at 1,000 g for 30 s, and allowed to stand at room temperature (mixed thoroughly) for 10 min;
(6) 5 µL of the TK-substrate-biotin and ATP (the mixture prepared in step (5)) was added to the 384-well plate from step (4) to initiate the reaction;
(7) The mixture was centrifuged at 1,000 g for 30 s; the plate was sealed, and allowed to stand (and reacted) at room temperature for 40 min;
(10) The mixture was centrifuged at 1,000 g for 30 s, and allowed to stand (reacted) at room temperature for 1 h;
(§2) Formula of inhibition rate (%): […]
(§3) The nonlinear regression curve (dose response-variable slope) between the value of inhibition rate (%) and the logarithm of compound concentration was fitted with graphpad prism 8.0, the effect dose curve of compound was drawn, and the IC50 value was calculated.

Another assay addresses ALK (Homo sapiens, UniProt Q9UM73). In words: Assay of activity on ALK kinase. In kind it is biochemical. To be noted: kinase inhibition. As for the experimental part:
(§4) Assay of activity on ALK kinase
(§5) (1) A compound stock solution was prepared;
(§6) (2) The compound stock solution was diluted 3× to obtain a compound dilution;
(§7) (5) 5 μl of the 2× kinase working solution was added to the reaction plate, centrifuged at 1,000 rpm for 1 min, and incubated at 25° C. for 15 min;
(§8) (7) 5 μl of the TK-substrate-biotin and ATP (the mixture prepared in step (6)) was added to initiate the reaction;
(§9) (8) The mixture was centrifuged at 1,000 g for 30 s; the plate was sealed, and incubated at 25° C. for 60 min;
(§10) (11) The mixture was centrifuged at 1,000 g for 1 min, and incubated at 25° C. for 60 min;
as §2, §3
(§11) Y=Bottom+(Top−Bottom)/(1+10^((LogIC50−X)*Hill Slope))
(§12) X-axis: logarithm of compound concentration; Y axis: inhibition rate ([…])

Another assay has as its target EGFR^L858R/T790M/C797S (Homo sapiens, UniProt P00533, C797S/L858R/T790M). In words: EGFR inhibitory activity assay (TK-substrate-biotin/ATP, 665/615 ratio). The class given is biochemical. To be noted: kinase inhibition. In short, it runs like this: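 HTRF kinase assay: enzyme preincubated with compound 10 min at room temperature, then reacted with biotinylated TK substrate and ATP for 40 min at room temperature.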

Assay [2] has as its target Ba/F3(EGFR^Del19/T790M/C797S) cells (Homo sapiens, UniProt P00533, DEL746-750/T790M/C797S, cells depend on it). The assay is described as follows: Assay of activity on Ba/F3 cells (CTG, 72 h). In kind it is cell-based. To be noted: read-out: IC50 (nM) Ba/F3 (EGFR^Del19/T790M/C797S). In short, it runs like this:
as §1

For a further assay, the target named is ALK^G1202R (Homo sapiens, UniProt Q9UM73, G1202R). In words: Assay of activity on ALK kinase. To be noted: kinase inhibition. The class given is biochemical. As for the experimental part:
as §4, §5, §6, §7, §8, §9, §10, §2, §3, §11, §12

Another assay deals with T1, Ba/F3(EML4-ALK) cells (Homo sapiens, UniProt Q9UM73).
T1 construct: fused on or other part: Q9HC35 (Echinoderm microtubule-associated protein-like 4)
T1 sequence (Q9UM73 whole entry, change not shown, the tested form may be a part): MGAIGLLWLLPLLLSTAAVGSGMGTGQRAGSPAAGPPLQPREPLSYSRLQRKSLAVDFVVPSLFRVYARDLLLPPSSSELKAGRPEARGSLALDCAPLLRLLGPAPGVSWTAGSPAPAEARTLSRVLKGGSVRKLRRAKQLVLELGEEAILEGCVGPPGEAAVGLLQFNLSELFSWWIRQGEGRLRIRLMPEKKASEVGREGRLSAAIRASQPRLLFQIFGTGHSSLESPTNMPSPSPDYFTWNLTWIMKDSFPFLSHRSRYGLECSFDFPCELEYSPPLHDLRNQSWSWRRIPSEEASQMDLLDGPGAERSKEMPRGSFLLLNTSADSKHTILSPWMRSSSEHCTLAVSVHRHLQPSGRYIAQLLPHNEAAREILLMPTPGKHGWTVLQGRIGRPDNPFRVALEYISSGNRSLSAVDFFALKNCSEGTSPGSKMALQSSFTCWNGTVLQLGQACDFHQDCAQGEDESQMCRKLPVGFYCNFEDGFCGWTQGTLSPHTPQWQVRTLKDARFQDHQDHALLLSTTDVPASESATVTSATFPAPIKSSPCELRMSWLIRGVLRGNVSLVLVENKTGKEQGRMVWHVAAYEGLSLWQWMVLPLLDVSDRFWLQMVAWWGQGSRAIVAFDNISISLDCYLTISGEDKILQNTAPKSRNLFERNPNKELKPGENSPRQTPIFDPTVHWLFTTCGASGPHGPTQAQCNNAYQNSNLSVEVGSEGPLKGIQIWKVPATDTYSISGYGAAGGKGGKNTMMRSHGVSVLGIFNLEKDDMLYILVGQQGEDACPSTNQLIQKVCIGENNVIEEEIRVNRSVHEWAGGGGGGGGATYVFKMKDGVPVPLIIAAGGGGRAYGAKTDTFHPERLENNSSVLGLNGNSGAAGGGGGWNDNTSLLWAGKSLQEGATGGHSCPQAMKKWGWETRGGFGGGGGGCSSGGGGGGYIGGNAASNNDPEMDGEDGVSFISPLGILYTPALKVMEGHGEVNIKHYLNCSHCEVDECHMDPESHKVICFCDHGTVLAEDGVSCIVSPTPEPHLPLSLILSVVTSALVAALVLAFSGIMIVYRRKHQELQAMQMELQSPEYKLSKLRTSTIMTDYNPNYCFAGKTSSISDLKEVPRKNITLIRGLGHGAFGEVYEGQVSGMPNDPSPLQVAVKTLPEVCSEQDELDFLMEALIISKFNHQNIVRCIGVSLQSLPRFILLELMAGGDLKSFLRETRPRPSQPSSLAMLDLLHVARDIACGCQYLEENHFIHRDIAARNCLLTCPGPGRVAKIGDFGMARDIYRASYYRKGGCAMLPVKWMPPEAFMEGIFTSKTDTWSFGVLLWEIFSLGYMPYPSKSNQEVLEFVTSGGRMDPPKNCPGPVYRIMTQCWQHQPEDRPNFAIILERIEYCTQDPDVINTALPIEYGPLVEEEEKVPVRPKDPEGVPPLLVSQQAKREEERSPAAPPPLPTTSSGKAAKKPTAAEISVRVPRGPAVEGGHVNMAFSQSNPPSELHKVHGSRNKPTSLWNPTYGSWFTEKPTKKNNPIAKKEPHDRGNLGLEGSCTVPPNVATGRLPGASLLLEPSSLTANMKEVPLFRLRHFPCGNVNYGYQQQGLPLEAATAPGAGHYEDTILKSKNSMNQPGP
The assay is described as follows: Assay of activity on Ba/F3(EML4-ALK) cells (CTG, 72 h). The class given is cell-based. To be noted: read-out: IC50 (nM) Ba/F3(EML4-ALK). In short, it runs like this: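 Ba/F3(EML4-ALK) cells, 700 per well, were exposed to 3-fold serial compound dilutions for 72 h at 37° C, 5% CO2, and viability was then read by CTG luminescence.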

Sequence of EGFR^L858R/T790M/C797S (P00533 25-1210 T790M/C797S/L858R): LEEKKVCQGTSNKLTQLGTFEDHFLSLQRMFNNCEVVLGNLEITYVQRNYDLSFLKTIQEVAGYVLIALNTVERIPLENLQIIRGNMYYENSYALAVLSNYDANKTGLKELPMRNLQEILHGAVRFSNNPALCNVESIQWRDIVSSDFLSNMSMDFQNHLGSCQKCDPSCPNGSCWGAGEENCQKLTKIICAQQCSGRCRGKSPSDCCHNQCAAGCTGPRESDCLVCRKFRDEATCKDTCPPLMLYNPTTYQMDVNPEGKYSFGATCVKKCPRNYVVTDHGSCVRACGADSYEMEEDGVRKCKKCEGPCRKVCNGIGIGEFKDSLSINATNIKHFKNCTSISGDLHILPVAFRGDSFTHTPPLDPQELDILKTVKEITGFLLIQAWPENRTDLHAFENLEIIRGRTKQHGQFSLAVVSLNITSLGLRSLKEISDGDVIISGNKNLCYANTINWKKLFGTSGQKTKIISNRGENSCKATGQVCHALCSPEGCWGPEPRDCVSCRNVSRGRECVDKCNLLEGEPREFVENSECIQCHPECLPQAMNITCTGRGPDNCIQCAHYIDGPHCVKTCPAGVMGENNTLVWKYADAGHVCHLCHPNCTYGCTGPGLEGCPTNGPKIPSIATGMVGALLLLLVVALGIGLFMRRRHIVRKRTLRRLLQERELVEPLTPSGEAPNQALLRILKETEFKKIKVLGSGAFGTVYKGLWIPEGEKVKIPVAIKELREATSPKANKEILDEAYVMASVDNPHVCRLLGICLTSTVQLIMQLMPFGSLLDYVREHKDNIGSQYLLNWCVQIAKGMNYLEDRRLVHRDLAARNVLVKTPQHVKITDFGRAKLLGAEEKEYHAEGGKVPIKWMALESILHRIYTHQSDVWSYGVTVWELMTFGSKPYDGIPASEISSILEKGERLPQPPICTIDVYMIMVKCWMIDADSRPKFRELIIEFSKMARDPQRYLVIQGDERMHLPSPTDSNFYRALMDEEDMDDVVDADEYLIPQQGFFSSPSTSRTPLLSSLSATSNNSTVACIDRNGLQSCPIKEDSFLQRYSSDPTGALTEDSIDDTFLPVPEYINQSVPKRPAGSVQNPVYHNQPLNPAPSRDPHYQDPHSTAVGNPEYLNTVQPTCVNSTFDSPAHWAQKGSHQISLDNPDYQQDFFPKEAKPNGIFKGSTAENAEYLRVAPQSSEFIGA
Sequence of Ba/F3(EGFR^L858R/T790M/C797S) cells (P00533 whole entry T790M/C797S/L858R): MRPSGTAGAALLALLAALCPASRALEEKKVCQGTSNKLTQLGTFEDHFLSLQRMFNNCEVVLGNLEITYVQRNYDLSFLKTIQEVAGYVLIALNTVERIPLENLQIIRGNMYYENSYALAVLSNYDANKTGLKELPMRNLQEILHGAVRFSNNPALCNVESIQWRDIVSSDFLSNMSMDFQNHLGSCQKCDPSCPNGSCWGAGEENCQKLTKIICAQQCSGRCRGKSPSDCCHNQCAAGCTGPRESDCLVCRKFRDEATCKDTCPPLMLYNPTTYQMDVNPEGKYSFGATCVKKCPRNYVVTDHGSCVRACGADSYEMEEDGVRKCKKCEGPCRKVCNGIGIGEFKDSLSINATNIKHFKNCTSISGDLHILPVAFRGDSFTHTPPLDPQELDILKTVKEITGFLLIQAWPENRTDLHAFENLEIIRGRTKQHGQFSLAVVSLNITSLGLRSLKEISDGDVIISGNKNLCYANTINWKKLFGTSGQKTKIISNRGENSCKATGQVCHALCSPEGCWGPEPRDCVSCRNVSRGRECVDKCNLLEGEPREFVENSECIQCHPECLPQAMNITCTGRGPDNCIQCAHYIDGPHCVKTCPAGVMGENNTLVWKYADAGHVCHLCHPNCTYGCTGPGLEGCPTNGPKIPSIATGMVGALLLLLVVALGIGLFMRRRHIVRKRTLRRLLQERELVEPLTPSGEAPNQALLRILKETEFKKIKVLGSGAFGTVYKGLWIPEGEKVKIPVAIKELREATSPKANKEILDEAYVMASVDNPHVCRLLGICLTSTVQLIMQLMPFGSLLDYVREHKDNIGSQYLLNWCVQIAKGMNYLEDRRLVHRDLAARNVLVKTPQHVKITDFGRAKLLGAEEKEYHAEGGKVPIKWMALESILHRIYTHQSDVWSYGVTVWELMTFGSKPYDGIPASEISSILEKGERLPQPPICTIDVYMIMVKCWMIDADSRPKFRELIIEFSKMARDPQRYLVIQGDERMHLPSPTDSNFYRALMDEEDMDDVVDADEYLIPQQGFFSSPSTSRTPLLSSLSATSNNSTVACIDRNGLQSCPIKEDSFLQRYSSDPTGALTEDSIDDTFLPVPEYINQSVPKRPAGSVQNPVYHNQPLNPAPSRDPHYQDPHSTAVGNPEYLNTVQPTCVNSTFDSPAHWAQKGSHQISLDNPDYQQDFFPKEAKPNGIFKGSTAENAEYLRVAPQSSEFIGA

Consider `COc1cc(N2CCC(N3CCN(C(=O)CCCCCCc4cccc5c4C(=O)N(C4CCC(=O)NC4=O)C5=O)CC3)CC2)ccc1Nc1ncc(Cl)c(Nc2ccccc2P(C)(C)=O)n1` (centres unmarked) [Compound A1, 4-(7-(4-(1-(4-((5-chloro-4-((2-(dimethylphosphoryl)phenyl)amino)pyrimidin-2-yl)amino)-3-methoxyphenyl)piperidin-4-yl)piperazin-1-yl)-7-oxoheptyl)-2-(2,6-dioxopiperidin-3-yl)isoindoline-1,3-dione], for which, in assay [1], the GI50 was in the range of 201 to 300 nM. For the same compound, the IC50 lay within 101 to 200 nM on EGFR^Del19/T790M/C797S, 101 to 200 nM against ALK and 1 to 100 nM on EGFR^L858R/T790M/C797S.
For the compound `COc1cc(N2CCC(N3CCN(C(=O)CCCCCCOc4cccc5c4C(=O)N(C4CCC(=O)NC4=O)C5=O)CC3)CC2)ccc1Nc1ncc(Cl)c(Nc2ccccc2P(C)(C)=O)n1` (centres unmarked) [Compound A2, 4-((7-(4-(1-(4-((5-chloro-4-((2-(dimethylphosphoryl)phenyl)amino)pyrimidin-2-yl)amino)-3-methoxyphenyl)piperidin-4-yl)piperazin-1-yl)-7-oxoheptyl)oxy)-2-(2,6-dioxopiperidin-3-yl)isoindoline-1,3-dione], the GI50 in assay [1] lay within 201 to 300 nM. Also, the IC50 at EGFR^Del19/T790M/C797S lay in the range of 101 to 200 nM; at ALK, 1 to 100 nM; on EGFR^L858R/T790M/C797S, 1 to 100 nM.
Regarding `COc1cc(N2CCC(N3CCN(CCOCCOCCOCCNC(=O)COc4cccc5c4C(=O)N(C4CCC(=O)NC4=O)C5=O)CC3)CC2)ccc1Nc1ncc(Cl)c(Nc2ccccc2P(C)(C)=O)n1` (centres unmarked) [Compound A3, N-(2-(2-(2-(2-(4-(1-(4-((5-chloro-4-((2-(dimethylphosphoryl)phenyl)amino)pyrimidin-2-yl)amino)-3-methoxyphenyl)piperidin-4-yl)piperazin-1-yl)ethoxy)ethoxy)ethoxy)ethyl)-2-((2-(2,6-dioxopiperidin-3-yl)-1,3-dioxoisoindolin-4-yl)oxy)acetamide], the IC50 on EGFR^Del19/T790M/C797S and at EGFR^L858R/T790M/C797S was 1 to 100 nM each time.
Regarding `COc1cc(N2CCC(N3CCN(CCCCCCCOc4cccc5c4C(=O)N(C4CCC(=O)NC4=O)C5=O)CC3)CC2)ccc1Nc1ncc(Cl)c(Nc2ccccc2P(C)(C)=O)n1` (centres unmarked) [Compound A10, 4-((7-(4-(1-(4-((5-chloro-4-((2-(dimethylphosphoryl)phenyl)amino)pyrimidin-2-yl)amino)-3-methoxyphenyl)piperidin-4-yl)piperazin-1-yl)heptyl)oxy)-2-(2,6-dioxopiperidin-3-yl)isoindoline-1,3-dione], the GI50 (in assay [1]; in assay [2]; at Ba/F3(EML4-ALK) cells) was 1 to 100 nM in each case. Besides, the IC50 was 1 to 100 nM at EGFR^Del19/T790M/C797S, 1 to 100 nM against ALK, 101 to 200 nM on ALK^G1202R and 1 to 100 nM on EGFR^L858R/T790M/C797S.
Take `COc1cc(N2CCC(N3CCN(CC(=O)Nc4cccc5c4CN(C4CCC(=O)NC4=O)C5=O)CC3)CC2)ccc1Nc1ncc(Cl)c(Nc2ccccc2P(C)(C)=O)n1` (centres unmarked) [Compound A17, 2-(4-(1-(4-((5-chloro-4-((2-(dimethylphosphoryl)phenyl)amino)pyrimidin-2-yl)amino)-3-methoxyphenyl)piperidin-4-yl)piperazin-1-yl)-N-(2-(2,6-dioxopiperidin-3-yl)-1-oxoisoindolin-4-yl)acetamide]: the IC50 at EGFR^Del19/T790M/C797S and on EGFR^L858R/T790M/C797S was 1 to 100 nM each time.
As to `COc1cc(N2CCC(N3CCN(CCCCC#Cc4cccc5c4CN(C4CCC(=O)NC4=O)C5=O)CC3)CC2)ccc1Nc1ncc(Cl)c(Nc2ccccc2P(C)(C)=O)n1` (centres unmarked) [Compound C116, 3-(4-(6-(4-(1-(4-((5-chloro-4-((2-(dimethylphosphoryl)phenyl)amino)pyrimidin-2-yl)amino)-3-methoxyphenyl)piperidin-4-yl)piperazin-1-yl)hex-1-yn-1-yl)-1-oxoisoindolin-2-yl)piperidine-2,6-dione], the GI50 (in assay [2]; at Ba/F3(EML4-ALK) cells) was 1 to 100 nM each time. The IC50 is 1 to 100 nM at EGFR^Del19/T790M/C797S, 1 to 100 nM against ALK, 201 to 300 nM on ALK^G1202R and 1 to 100 nM at EGFR^L858R/T790M/C797S.
With `COc1cc(N2CCC(N3CCN(CCCCCC#Cc4cc(F)cc5c4CN(C4CCC(=O)NC4=O)C5=O)CC3)CC2)ccc1Nc1ncc(Cl)c(Nc2ccccc2P(C)(C)=O)n1` (centres unmarked) [Compound C167, 3-(4-(7-(4-(1-(4-((5-chloro-4-((2-(dimethylphosphoryl)phenyl)amino)pyrimidin-2-yl)amino)-3-methoxyphenyl)piperidin-4-yl)piperazin-1-yl)hept-1-yn-1-yl)-6-fluoro-1-oxoisoindolin-2-yl)piperidine-2,6-dione], the GI50 (in assay [1]; at Ba/F3(EML4-ALK) cells) was 1 to 100 nM in each case. Besides, the IC50 at EGFR^Del19/T790M/C797S is 1 to 100 nM; at ALK it was 1 to 100 nM; at ALK^G1202R, 201 to 300 nM; at EGFR^L858R/T790M/C797S it was 1 to 100 nM.
Turning to `COc1cc(N2CCC(N3CCN(CCCCCCC#Cc4cccc5c4CN(C4CCC(=O)NC4=O)C5=O)CC3)CC2)ccc1Nc1ncc(Cl)c(Nc2ccccc2P(C)(C)=O)n1` (centres unmarked) [Compound C177, 3-(4-(8-(4-(1-(4-((5-chloro-4-((2-(dimethylphosphoryl)phenyl)amino)pyrimidin-2-yl)amino)-3-methoxyphenyl)piperidin-4-yl)piperazin-1-yl)oct-1-yn-1-yl)-1-oxoisoindolin-2-yl)piperidine-2,6-dione], the GI50 (in assay [2]; at Ba/F3(EML4-ALK) cells) was 1 to 100 nM throughout. For the same compound, the half-maximal inhibitory concentration (IC50) at EGFR^Del19/T790M/C797S was in the range of 1 to 100 nM; against ALK, 1 to 100 nM; against ALK^G1202R, 201 to 300 nM; on EGFR^L858R/T790M/C797S, 1 to 100 nM.
Take `COc1cc(N2CCC(N3CCN(CCCCCCCC#Cc4cccc5c4CN(C4CCC(=O)NC4=O)C5=O)CC3)CC2)ccc1Nc1ncc(Cl)c(Nc2ccccc2P(C)(C)=O)n1` (centres unmarked) [Compound C178, 3-(4-(9-(4-(1-(4-((5-chloro-4-((2-(dimethylphosphoryl)phenyl)amino)pyrimidin-2-yl)amino)-3-methoxyphenyl)piperidin-4-yl)piperazin-1-yl)non-1-yn-1-yl)-1-oxoisoindolin-2-yl)piperidine-2,6-dione]: the GI50 (in assay [2]; on Ba/F3(EML4-ALK) cells) was 1 to 100 nM in each case. Further, the IC50 was 1 to 100 nM at EGFR^Del19/T790M/C797S, 1 to 100 nM at ALK, 201 to 300 nM against ALK^G1202R and 1 to 100 nM at EGFR^L858R/T790M/C797S.
Take `COc1cc(N2CCC3(CCN(CCCCC#Cc4cccc5c4CN(C4CCC(=O)NC4=O)C5=O)CC3)CC2)c(C)cc1Nc1ncc(Br)c(Nc2ccc3nccnc3c2P(C)(C)=O)n1` (centres unmarked) [Compound C187, 3-(4-(6-(9-(4-((5-bromo-4-((5-(dimethylphosphoryl)quinoxalin-6-yl)amino)pyrimidin-2-yl)amino)-5-methoxy-2-methylphenyl)-3,9-diazaspiro[5.5]undecan-3-yl)hex-1-yn-1-yl)-1-oxoisoindolin-2-yl)piperidine-2,6-dione]: the GI50 (in assay [2]; on Ba/F3(EML4-ALK) cells) was 1 to 100 nM throughout. Besides, the IC50 on EGFR^Del19/T790M/C797S and on EGFR^L858R/T790M/C797S was 1 to 100 nM each time.
Regarding `COc1cc(N2CCC(N3CCN(CCCCC#Cc4ccc5c(c4)CN(C4CCC(=O)NC4=O)C5=O)CC3)CC2)ccc1Nc1ncc(Cl)c(Nc2ccccc2P(C)(C)=O)n1` (centres unmarked) [Compound C192, 3-(5-(6-(4-(1-(4-((5-chloro-4-((2-(dimethylphosphoryl)phenyl)amino)pyrimidin-2-yl)amino)-3-methoxyphenyl)piperidin-4-yl)piperazin-1-yl)hex-1-yn-1-yl)-1-oxoisoindolin-2-yl)piperidine-2,6-dione], the GI50 (in assay [2]; on Ba/F3(EML4-ALK) cells) was 1 to 100 nM each time. The IC50 lay in the range of 1 to 100 nM on EGFR^Del19/T790M/C797S, 1 to 100 nM against ALK, 201 to 300 nM against ALK^G1202R and 1 to 100 nM on EGFR^L858R/T790M/C797S.

One may read the IC50 as the concentration at which inhibition is half-maximal.
